Data published in publication PMC6273912, “Novel 5-Substituted 2-(Aylmethylthio)-4-chloro-N-(5-aryl-1,2,4-triazin-3-yl)benzenesulfonamides: Synthesis, Molecular Structure, Anticancer Activity, Apoptosis-Inducing Activity and Metabolic Stability” (Molecules, 2016).
Where two headings read alike, the source gives them in different places.

How the values were obtained:
[1] = Metabolic stability with human liver microsomes and NADPH; type: in vitro ADME; details: liver microsomes
Method: Stock solutions of studied compounds were prepared at concentration of 10 mM in DMSO. […] Incubation mixture contained 10 μM of a studied derivative, 1 mM of NADPH (Sigma-Aldrich) and 0.5 mg/mL of human liver microsomes (HLM, Sigma-Aldrich) in potassium phosphate buffer (0.1 M, pH 7.4). Incubation was carried out in thermostat at 37 °C and started by addition of studied compound. 50 μL samples were taken after 5, 15, 30, 45 and 60 min. Enzymatic reaction was terminated by the addition of the equal volume of ice-cold acetonitrile containing 10 μM of alprazolam (Sigma-Aldrich) serving as internal standard (IS). Control incubations were performed without NADPH to assess chemical instability. After collection, samples were immediately centrifuged (10 min, 10,000 rpm) and resulted supernatant was directly analyzed or kept in −80 °C until LC-MS analysis. Natural logarithm of a compound over IS peak area ratio was plotted versus incubation time. Metabolic half-time (t1/2) was calculated from the slope of the linear regression, as reported in [48].
LC-MS analysis was performed on an Agilent 1260 system coupled to SingleQuad 6120 mass spectrometer (Agilent Technologies, Santa Clara, CA, USA). Ascentis Express ES-CN (2.1 mm × 100 mm, 2.7 μm, Supelco Analytical, Bellefonte, PA, USA) was used in reversed-phase mode with gradient elution starting with 50% of phase A (10 mM ammonium formate in water) and 50% of phase B (10 mM ammonium formate in acetonitrile-water mixture, 95:5 v/v). […] Total analysis time was 10 min at 25 °C, flow rate was 0.4 mL/min and the injection volume was 20 μL. The mass spectrometer was equipped with electrospray ion source and operated in positive ionization. Mass analyzer was set individually to each compound to detect [M + H]^+ pseudomolecular ions. MSD parameters of the ESI source were as follows: nebulizer pressure 50 psig (N2), drying gas […] (N2), drying gas temperature 300 °C, capillary voltage 3.5 kV, fragmentor voltage 100 V.

[2] = tested on: MCF-7 (breast cancer); assay: MTT cell viability assay, MCF-7; type: cell-based, human; details: Homo sapiens, MCF7, 72 h of incubation, mean ± SD
Method: (§1) All chemicals, if not stated otherwise, were obtained from Sigma-Aldrich (St. Louis, MO, USA). The MCF-7 cell line was purchased from Cell Lines Services (Eppelheim, Germany), the HeLa and HCT-116 cell lines were obtained from the Department of Microbiology, Tumor and Cell Biology, Karolinska Institute (Stockholm, Sweden). Cells were cultured in Dulbecco’s modified Eagle’s medium (DMEM) supplemented with 10% fetal bovine serum, 2 mM glutamine, 100 units/mL penicillin, and 100 μg/mL streptomycin. Cultures were maintained in a humidified atmosphere with 5% CO2 at 37 °C in an incubator (HeraCell, Heraeus, Langenselbold, Germany).
(§2) Cell viability was determined using the MTT (3-(4,5-dimethylthiazol-2-yl)-2,5-diphenyl-tetrazoliumbromide) assay. Stock solutions of the studied compounds were prepared in 100% DMSO. […] Cells were seeded in 96-well plates at a density of 5 × 10^3 cells/well and treated for 72 h with the examined compounds in the concentration range 1–100 μM (1, 10, 25, 50 and 100 μM). Following treatment, MTT (0.5 mg/mL) was added to the medium and cells were further incubated for 2 h at 37 °C. Cells were lysed with DMSO and the absorbance of the formazan solution was measured at 550 nm with a plate reader (1420 multilabel counter, Victor, Jügesheim, Germany). […] The experiment was performed in triplicate. Values are expressed as the mean ± SD of at least three independent experiments.

[3] = tested on: HeLa (cervical cancer); assay: MTT cell viability assay, HeLa; type: cell-based, human; details: for IC50: 72 h of incubation, mean ± SD
Method: as §1, §2

[4] = tested on: HCT-116, HeLa and MCF-7; assay: MTT cell viability assay, all tested cell lines together; type: cell-based; details: Homo sapiens; average over HCT-116, HeLa and MCF-7; read-out: average IC50 against all tested cell lines
Method: as §1, §2

[5] = tested on: HCT-116 (colon cancer); assay: MTT cell viability assay, HCT-116; type: cell-based, human; details: 72 h of incubation, mean ± SD
Method: as §1, §2

[6] = tested on: MCF-7; assay: Mitochondrial membrane potential (JC-1), MCF-7; type: cell-based, human; details: MCF-7, 24 h, low and moderate concentrations
Method: Loss of the mitochondrial membrane potential (Δψm) is one of the earliest indicators of an apoptosis. It can be detected using fluorescent dye JC-1 (5,5′,6,6′-tetrachloro-1,1′,3,3′-tetraethylbenzimidazolylcarbocyanine iodide) exited with blue laser. JC-1 spontaneously forms dimer complexes (J aggregates) with red fluorescent or remain as a monomers with green fluorescence in cells with high and low Δψm, respectively.
Half an hour before the end of 24 h-treatment 2.5 μg/mL of JC-1 (5,5′,6,6′-tetrachloro-1,1′,3,3′-tetraethylbenzimidazolylcarbocyanine iodide) was added to the cell medium. As a negative control 100 μM CCCP (carbonyl cyanide 3-chlorophenylhydrazone) was used 15 min before JC-1 treatment. Following treatment cells were twice washed with PBS and analyzed with flow cytometer (LSR II, BD Biosciences).
Green and red fluorescence were observed using FL-1 (530 ± 30 nm) and FL-2 (585 ± 42 nm) channels, respectively. Percentage of cell population in red or green fluorescence gate indicated the level of Δψm. Decreasing red fluorescence cell population indicated lower Δψm.

[7] = tested on: MCF-7; assay: Cell cycle analysis (sub-G1, DAPI flow cytometry), MCF-7; type: cell-based, human; details: MCF-7, 24 h, mean ± SD
Method: One of the most common mechanisms in anticancer drug treatment is changes in cell cycle, which can be measured by DNA content. Cell cycle distribution in HCT-116, HeLa and MCF-7 cells was examined to determine cycle arrest and/or presence of sub-G1 after treatment with compounds 37 and 46. […] Cell populations data are expressed as the mean ± SD of at least three independent experiments.
Following treatment, cells were fixed in cold 70% ethanol for 30 min. Fixed cells were stained for 15 min in buffer containing 500 μg/mL RNAse A (EURx, Gdansk, Poland) and 2.5 μg/mL of DAPI (Sigma-Aldrich, Munich, Germany). The fluorescence of DAPI was measured at 440 ± 40 nm with a flow cytometer (LSR II, BD Biosciences, Mountain View, CA, USA). Each experiment was performed at least in triplicate. Data were analyzed off-line using the BD FACSDiva (BD Biosciences).

[8] = tested on: HeLa as well as HCT-116 cells; assay: MTT cell viability assay, HeLa and HCT-116; type: cell-based, human; details: summary over the two cell lines; for IC50: Homo sapiens, read-out: IC50 toward HeLa as well as HCT-116
Method: as §1, §2

[9] = pH 7.4, human liver microsomes 0.5 mg/mL, 1 mM NADPH, 10 μM compound, pH 7.4, 37 °C, up to 60 min, read-out: In Vitro Metabolic Half-Life t1/2
[10] = pH 7.4, value in parentheses beside >60, beyond the 60 min incubation, human liver microsomes, NADPH, read-out: In Vitro Metabolic Half-Life t1/2 (min), value in parentheses

Row | SMILES | half-life at 10 μM [1, 9] | IC50 [2] | IC50 [3] | IC50 ([3]; Homo sapiens, 72 h) | IC50 [4] | IC50 [5] | IC50 ([5]; Homo sapiens, HCT-116, 72 h) | half-life at 10 μM [1, 10] | IC50 [8] | melting point | IC50 toward HeLa as well as HCT-116 [8] | effect on mitochondrial membrane potential (Δψm) [6] | Sub-G1 cell population [7] | viability at 100 µM ([3]; Homo sapiens, HeLa, 72 h, 100 μM, read-out: Viability of cell line at 100 μM (HeLa))
1 | COc1ccc(-c2cnnc(NS(=O)(=O)c3cc(C)c(Cl)cc3SCc3ccccc3)n2)cc1OC [Compound 31, 2-Benzylthio-4-chloro-N-[5-(3,4-dimethoxyphenyl)-1,2,4-triazin-3-yl]-5-methylbenzenesulfonamide] | 17.6 min | 77 ± 2 µM |  | 150 ± 6 µM |  |  | 140 ± 7 µM |  |  |  |  |  |  | 
2 | COc1ccc(-c2cnnc(NS(=O)(=O)c3cc(C(=O)Nc4ccc(Cl)cc4)c(Cl)cc3SCc3ccccc3)n2)cc1 [Compound 47, 4-Benzylthio-2-chloro-N-(4-chlorophenyl)-5-{N-[5-(4-methoxyphenyl)-1,2,4-triazin-3-yl]sulfamoyl}benzamide] | 17.5 min | 78 ± 3 µM |  | 79 ± 1 µM |  |  | 75 ± 5 µM |  |  |  |  |  |  | 
3 | Cc1cc(S(=O)(=O)Nc2nncc(-c3cccc(F)c3)n2)c(SCc2cccc3ccccc23)cc1Cl [Compound 36, 4-Chloro-N-[5-(3-fluorophenyl)-1,2,4-triazin-3-yl]-5-methyl-2-[(naphthalene-1-yl)methylthio]benzene-sulfonamide] | 13.9 min | 96 ± 4 µM |  | 55 ± 2 µM | < 71 µM |  | 49 ± 2 µM |  |  |  |  |  |  | 
4 | Cc1cc(S(=O)(=O)Nc2nncc(-c3ccc(C(F)(F)F)cc3)n2)c(SCc2ccc(C(F)(F)F)cc2)cc1Cl [Compound 34, 4-Chloro-5-methyl-2-[4-(trifluoromethyl)benzylthio]-N-[5-(4-trifluoromethylphenyl)-1,2,4-triazin-3-yl]-benzenesulfonamide] | > 60 min | 68 ± 3 µM |  | 73 ± 1 µM | < 71 µM |  | 51 ± 1 µM | 154 min | 51 to 85 µM |  |  |  |  | 
5 | Cc1ccc(NC(=O)c2cc(S(=O)(=O)Nc3nncc(-c4ccc(C(F)(F)F)cc4)n3)c(SCc3ccccc3)cc2Cl)cc1 [Compound 52, 4-Benzylthio-2-chloro-N-(4-methylphenyl)-5-{N-[5-(4-trifluoromethylphenyl)-1,2,4-triazin-3-yl]sulfamoyl}-benzamide] | 26.5 min | 69 ± 1 µM |  |  |  |  | 70 ± 2 µM |  |  |  |  |  |  | 100%
6 | Cc1cc(S(=O)(=O)Nc2nncc(-c3ccc(C(F)(F)F)cc3)n2)c(SCc2ccccc2)cc1Cl [Compound 28, 2-Benzylthio-4-chloro-5-methyl-N-[5-(4-trifluoromethylphenyl)-1,2,4-triazin-3-yl]benzenesulfonamide] |  | 120 ± 5 µM |  | 100 ± 6 µM |  |  | 200 ± 4 µM |  |  |  | loss of activity |  |  | 
7 | Cc1cc(S(=O)(=O)Nc2nncc(-c3ccc(C(F)(F)F)cc3)n2)c(SCc2c(C)noc2C)cc1Cl [Compound 40, 4-Chloro-2-[(3,5-dimethylizoxazol-4-yl)methylthio]-5-methyl-N-[5-(4-trifluoromethylphenyl)-1,2,4-triazin-3-yl]benzenesulfonamide] |  | 98 ± 3 µM |  | 85 ± 2 µM |  |  | 77 ± 1 µM |  | 51 to 85 µM |  |  |  |  | 

Now from value to compound, other results behind:

Row | half-life at 10 μM [1, 9] | IC50 [2] | IC50 [3] | IC50 ([3]; Homo sapiens, 72 h) | IC50 [4] | IC50 [5] | IC50 ([5]; Homo sapiens, HCT-116, 72 h) | half-life at 10 μM [1, 10] | IC50 [8] | melting point | IC50 toward HeLa as well as HCT-116 [8] | SMILES | effect on mitochondrial membrane potential (Δψm) [6] | Sub-G1 cell population [7] | viability at 100 µM ([3]; Homo sapiens, HeLa, 72 h, 100 μM, read-out: Viability of cell line at 100 μM (HeLa))
8 | < 5 min | 69 ± 1 µM | 42 ± 1 µM | 34 to 42 µM | 50 µM | 38 ± 2 µM | 36 to 38 µM |  |  |  |  | COc1ccc(-c2cnnc(NS(=O)(=O)c3cc(C)c(Cl)cc3SCc3cccc4ccccc34)n2)cc1 [Compound 38, 4-Chloro-N-[5-(4-methoxyphenyl)-1,2,4-triazin-3-yl]-5-methyl-2-[(naphthalene-1-yl)methylthio]benzene-sulfonamide] |  |  | 
9 | 24.9 min | 67 ± 1 µM |  | 90 ± 4 µM |  |  | 85 ± 2 µM |  |  |  |  | COc1cccc(-c2cnnc(NS(=O)(=O)c3cc(C)c(Cl)cc3SCc3ccccc3)n2)c1 [Compound 30, 2-Benzylthio-4-chloro-N-[5-(3-methoxyphenyl)-1,2,4-triazin-3-yl]5-methylbenzenesulfonamide] |  |  | 
10 | > 60 min | 59 ± 2 µM |  | 80 ± 2 µM | < 71 µM |  | 64 ± 1 µM | 78.1 min |  |  |  | O=C(Nc1ccc(Cl)cc1)c1cc(S(=O)(=O)Nc2nncc(-c3ccc(C(F)(F)F)cc3)n2)c(SCc2ccccc2)cc1Cl [Compound 46, 4-Benzylthio-2-chloro-N-(4-chlorophenyl)-5-{N-[5-(4-trifluoromethylphenyl)-1,2,4-triazin-3-yl]sulfamoyl}-benzamide] | remarkably decreased Δψm | 20% ± 5.6% | 
11 |  | 95 ± 3 µM |  | 93 ± 1 µM |  |  | 83 ± 2 µM |  |  | 208 to 211 °C |  | Cc1cc(S(=O)(=O)Nc2nncc(-c3cccc(F)c3)n2)c(SCc2c(C)noc2C)cc1Cl [Compound 39, 4-Chloro-2-[(3,5-dimethylizoxazol-4-yl)methylthio]-N-[5-(3-fluorophenyl)-1,2,4-triazin-3-yl]-5-methyl-benzenesulfonamide] |  |  | 
12 | 42.4 min | 78 ± 2 µM |  | 69 ± 1 µM | < 71 µM |  | 68 ± 3 µM |  |  |  |  | COc1ccc(-c2cnnc(NS(=O)(=O)c3cc(C)c(Cl)cc3SCc3ccc(C(F)(F)F)cc3)n2)cc1 [Compound 35, 4-Chloro-N-[5-(4-methoxyphenyl)-1,2,4-triazin-3-yl]-5-methyl-2-[4-(trifluoromethyl)benzylthio]benzene-sulfonamide] |  |  | 
